Laboratory results from US11939311B2, “Acid-labile surfactants” (Promega Corporation, priority 2019, dated 2024).

Columns and labels:
[1] = Acid stability in 2% TFA, LCMS; conditions: 3 mM stock diluted 6-times to 2% TFA-NanoPure water
Procedure: To test for acid stability, a 3% stock solution (9 mg/300 μL) of each example compound was prepared in NanoPure water. A secondary 3 mM stock solution was prepared in NanoPure water. The secondary stock was diluted 6-times in NanoPure water as a control or diluted 6-times into 2.4% TFA-NanoPure water to 2% TFA-NanoPure water for the acid stability experiment. The solutions were heated to 40° C. for 1 hour and analyzed by LCMS.
(§1) Compound purity and percent remaining were determined by integrating peaks in the total ion chromatogram using LCMS. Compound peaks were identified in negative mode using the molecular weight without sodium. The mobile phase of acetonitrile and water contained 10 mM ammonium acetate using a Synergi Max-RP column, 50×4.6 mm, 2.5 microns.

[2] = Thermal stability, LCMS (% remaining at 95° C. for 1 h); conditions: 20 mM DMSO stock diluted 100-times into Tris-based PCR buffer
Procedure: To test for thermal stability (% remaining at 95° C. for 1 h), 20 mM stock solutions of example compounds in DMSO were prepared. The stock solutions were diluted 100-times into a Tris-based PCR buffer and heated to 95° C. for 1 hour in a thermocycler. The solutions were then analyzed by LCMS.
as §1

[3] = molecular target: T1, Trypsin Gold (Promega) (Sus scrofa, UniProt P00761); assay: Trypsin compatibility with the trypsin-specific substrate BAEE; type: biochemical; conditions: 0.1% surfactant, 200 μM BAEE; for Slope: 0.2 μg Trypsin Gold, absorbance at 253 nm every minute over 10 minutes; for % Trypsin Activity: compared to control of trypsin without surfactant
T1 construct: purchased Promega
T1 sequence (P00761 9-231): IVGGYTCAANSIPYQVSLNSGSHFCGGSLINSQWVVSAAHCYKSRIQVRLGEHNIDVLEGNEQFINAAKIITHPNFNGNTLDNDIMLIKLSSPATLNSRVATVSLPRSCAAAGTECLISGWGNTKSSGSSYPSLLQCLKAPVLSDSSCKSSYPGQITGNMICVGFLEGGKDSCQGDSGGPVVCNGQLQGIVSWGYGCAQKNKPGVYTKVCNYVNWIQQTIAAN
Procedure: Compatibility of the different compounds with trypsin was tested using a trypsin-specific substrate, benzoyl-L-arginine ethyl ester hydrochloride (BAEE). 4% stock solutions (12 mg/300 μL) of example compounds were prepared in NanoPure water. The stock solution was diluted 40 times in 50 mM ammonium bicarbonate, pH 7.8 (0.1% final) with 200 μM of BAEE. The entire sample was transferred to an individual well in a 96-well UV-compatible microplate. The absorbance of the sample was measured at 253 nm using a TECAN M1000 plate reader. After 2 minutes, 0.2 μg of Trypsin Gold (Promega) was added to the reaction and absorbance at 253 nm was monitored every minute over a period of 10 minutes. The resulting activity measurement was compared to the control of trypsin without surfactant present. Trypsin is the most commonly used protease for the digestion of protein mass spectrometry samples. The results from this experiment indicate that the compounds have a minimal effect on trypsin activity and can be used during the sample digestion step.

% remaining after 1 h at 40° C. in 2% TFA [1] | % remaining after 1 hour at 95° C. in Polymerase Buffer C [2] | Slope [3] | % Trypsin Activity [3] [%] | Compound
1% | 95.2% |  |  | CCCCCCCCCCC1OCC(COC(=O)NCCCS(=O)(=O)[O-])O1.[Na+] (stereo not shown) [JRW-1564, Sodium 3-((((2-decyl-1,3-dioxolan-4-yl)methoxy)carbonyl)amino)propane-1-sulfonate]
0% | 93.8% |  |  | CCCCCC1(CCCCC)OCC(COC(=O)NCC(O)CS(=O)(=O)[O-])O1.[Na+] (stereo not shown) [JZ-0164, Sodium 3-((((2,2-dipentyl-1,3-dioxolan-4-yl)methoxy)carbonyl)amino)-2-hydroxypropane-1-sulfonate]
Not soluble | 81.2% |  |  | CCCCCCCC1(CCCCCCC)OCC(COC(=O)NCC(O)CS(=O)(=O)[O-])O1.[Na+] (stereo not shown) [RBK-0173]
0% | 93.6% |  |  | CCCCCCCCCCCC1(C)OCC(COC(=O)Nc2ccc(N(CCCS(=O)(=O)[O-])CCCS(=O)(=O)[O-])cc2)O1.[Na+].[Na+] (stereo not shown) [SL-1735, Sodium 3,3′-((4-((((2-methyl-2-undecyl-1,3-dioxolan-4-yl)methoxy)carbonyl)amino)phenyl)azanediyl)bis(propane-1-sulfonate)]
 | 6.0% |  |  | CCCCCCOC(C)(COC(=O)NCCCS(=O)(=O)[O-])OCCCCCC.[Na+] [RBK-0169]
 | 13.1% |  |  | CCCCCOC(C)(COC(=O)NCC(O)CS(=O)(=O)[O-])OCCCCC.[Na+] (stereo not shown) [RBK-0171]
22% | >99% |  |  | CCCCCCCCCCCC1OCC(COC(=O)Nc2ccc(N(CCCS(=O)(=O)[O-])CCCS(=O)(=O)[O-])cc2)O1.[Na+].[Na+] (stereo not shown) [CS-0843, Sodium 3,3′-((4-((((2-undecyl-1,3-dioxolan-4-yl)methoxy)carbonyl)amino)phenyl)-azanediyl)bis(propane-1-sulfonate)]
0% | 102.9% |  |  | CCCCCCC1(CCCCCC)OCC(COC(=O)NCCCS(=O)(=O)[O-])O1.[Na+] (stereo not shown) [TU-1179, Sodium 3-((((2,2-dihexyl-1,3-dioxolan-4-yl)methoxy)carbonyl)amino)propane-1-sulfonate]
100% | 83.9% |  |  | CCCCCCC1(CCCCCC)OCC(COC(=O)NCC(O)CS(=O)(=O)[O-])O1.[Na+] (stereo not shown) [JZ-0179, Sodium 3-((((2,2-dihexyl-1,3-dioxolan-4-yl)methoxy)carbonyl)amino)-2-hydroxypropane-1-sulfonate]
0% | 89.3% |  |  | CCCCCCCCCCC1(C)OCC(COC(=O)NCCCS(=O)(=O)[O-])O1.[Na+] (stereo not shown) [AF-0045, Sodium 3-((((2-decyl-2-methyl-1,3-dioxolan-4-yl)methoxy)carbonyl)amino)propane-1-sulfonate]
Not soluble | 94.1% |  |  | CCCCCCCCCCC1OCC(COC(=O)NCC(O)CS(=O)(=O)[O-])O1.[Na+] (stereo not shown) [HW-0801, Sodium 3-((((2-decyl-1,3-dioxolan-4-yl)methoxy)carbonyl)amino)-2-hydroxypropane-1-sulfonic Acid]
42% | 2.5% |  |  | CCCCCOC(C)(COC(=O)Nc1ccc(N(CCCS(=O)(=O)[O-])CCCS(=O)(=O)[O-])cc1)OCCCCC.[Na+].[Na+] [CS-0853, Sodium 3,3′-((4-(((2,2-bis(pentyloxy)propoxy)carbonyl)amino)phenyl)azanediyl) bis(propane-1-sulfonate)]
Not soluble | 83.6% |  |  | CCCCCCCCCCCC1(C)OCC(COC(=O)NCC(O)CS(=O)(=O)[O-])O1.[Na+] (stereo not shown) [HW-0797, Sodium 2-hydroxy-3-((((2-methyl-2-undecyl-1,3-dioxolan-4-yl)methoxy)carbonyl)amino)propane-1-sulfonic Acid]
Not soluble | Not soluble |  |  | CCCCCCCCCCCCC1OCC(COC(=O)NCC(O)CS(=O)(=O)[O-])O1.[Na+] (stereo not shown) [HW-0807, Sodium 3-((((2-dodecyl-1,3-dioxolan-4-yl)methoxy)carbonyl)amino)-2-hydroxypropane-1-sulfonic Acid]
4% | 92.8% |  |  | CCCCCCCCCCCCC1OCC(COC(=O)NCCCS(=O)(=O)[O-])O1.[Na+] (stereo not shown) [JRW-1574, Sodium 3-((((2-dodecyl-1,3-dioxolan-4-yl)methoxy)carbonyl)amino)propane-1-sulfonate]
1% | 95.7% |  |  | CCCCCCCCCCCC1OCC(COC(=O)NCCCS(=O)(=O)[O-])O1.[Na+] (stereo not shown) [JRW-1565, Sodium 3-((((2-undecyl-1,3-dioxolan-4-yl)methoxy)carbonyl)amino)propane-1-sulfonate]
 | 8.2% |  |  | CCCCCCOC(C)(COC(=O)NCC(O)CS(=O)(=O)[O-])OCCCCCC.[Na+] (stereo not shown) [RBK-0172]
0% | 99.4% |  |  | CCCCCC1(CCCCC)OCC(COC(=O)NCCCS(=O)(=O)[O-])O1.[Na+] (stereo not shown) [JZ-0177, Sodium 3-((((2,2-dipentyl-1,3-dioxolan-4-yl)methoxy)carbonyl)amino)propane-1-sulfonate]
0% | 88.3% | 0.0107 | 74 | CCCCCCCC1(CCCCCCC)OCC(COC(=O)NCCCS(=O)(=O)[O-])O1.[Na+] (stereo not shown) [RBK-0170]
 | 5.4% |  |  | CCCCCOC(C)(COC(=O)NCCCS(=O)(=O)[O-])OCCCCC.[Na+] [RBK-0168]
0% | 95.0% | 0.0133 | 92 | CCCCCCCCCCCC1(C)OCC(COC(=O)NCCCS(=O)(=O)[O-])O1.[Na+] (stereo not shown) [JRW-1573, Sodium 3-((((2-methyl-2-undecyl-1,3-dioxolan-4-yl)methoxy)carbonyl)amino)propane-1-sulfonate]
Not soluble | 94.2% |  |  | CCCCCCCCCCCC1OCC(COC(=O)NCC(O)CS(=O)(=O)[O-])O1.[Na+] (stereo not shown) [HW-0805, Sodium 2-hydroxy-3-((((2-undecyl-1,3-dioxolan-4-yl)methoxy)carbonyl)amino)propane-1-sulfonate]

Compound | % remaining after 1 h at 40° C. in 2% TFA [1] | % remaining after 1 hour at 95° C. in Polymerase Buffer C [2] | Slope [3] | % Trypsin Activity [3] [%]
CC(COC(=O)NCCCS(=O)(=O)[O-])(OCCC(F)(F)C(F)(F)C(F)(F)C(F)(F)C(F)(F)C(F)(F)F)OCCC(F)(F)C(F)(F)C(F)(F)C(F)(F)C(F)(F)C(F)(F)F.[Na+] [ZZ-0849, Sodium 3-(((2,2-bis((3,3,4,4,5,5,6,6,7,7,8,8,8-tridecafluorooctyl)oxy)propoxy)carbonyl)amino)propane-1-sulfonate] | 2% | >99% |  | 
CC(COC(=O)NCC(O)CS(=O)(=O)[O-])(OCCC(F)(F)C(F)(F)C(F)(F)C(F)(F)F)OCCC(F)(F)C(F)(F)C(F)(F)C(F)(F)F.[Na+] (stereo not shown) [ZZ-0850, Sodium 3-(((2,2-bis((3,3,4,4,5,5,6,6,6-nonafluorohexyl)oxy)propoxy)carbonyl)amino)-2-hydroxypropane-1-sulfonate] | 0% | 90.5% |  | 
CC(COC(=O)NCCCS(=O)(=O)[O-])(OCCC(F)(F)C(F)(F)C(F)(F)C(F)(F)F)OCCC(F)(F)C(F)(F)C(F)(F)C(F)(F)F.[Na+] [ZZ-0842, Sodium 3-(((2,2-bis((3,3,4,4,5,5,6,6,6-nonafluorohexyl)oxy)propoxy)carbonyl)amino)propane-1-sulfonate] | 0% | >99% |  | 
CC(COC(=O)NCC(O)CS(=O)(=O)[O-])(OCCC(F)(F)C(F)(F)C(F)(F)C(F)(F)C(F)(F)C(F)(F)F)OCCC(F)(F)C(F)(F)C(F)(F)C(F)(F)C(F)(F)C(F)(F)F.[Na+] (stereo not shown) [ZZ-0846, Sodium 3-(((2,2-bis((3,3,4,4,5,5,6,6,7,7,8,8,8-tridecafluorooctyl)oxy)propoxy)carbonyl)amino)-2-hydroxypropane-1-sulfonate] | 2% | 93.4% |  | 
